Values joined by “and” are separate entries in the source; they are usually repeats but may differ in a detail not shown here. Equal values may be shown once. Where a SMILES comes first, the peptide text is derived from it. [ ]: non-standard residue; d: D form. Hyp = O=C(O)[C@@H]1C[C@@H](O)CN1
Tested on: CCL5/RANTES
Experiment: Example 9 Luminex, LPS hPBMCs: CCL5/RANTES
Assay type: cell-based, human
Conditions: PBMC + LPS(5 ug/ml)
Procedure: Treatment Human PBMCs were pretreated with YY-101, YDE-011 and YDE-043 or reference compound; Xiidra® at various concentration (ranging from 1 nM to 100 uM) for 2 h before stimulation. An equal volume of 0.5% DMSO was used as a vehicle control. Then, the cells were treated with LPS at 5 ug/ml. The supernatants from treated cells were harvested at 24 h and placed in a 96 well for Luminex cytokine & chemokine profiling using a Luminex 200 multiplex assay (Luminex; R&D system, USA).
The main study arm with triplicate wells per group in a 24-well plate: • 1. Blank • 2. PBMC: 0.5% DMSO • 3. PBMC+LPS (5 ug/ml) • 4. PBMC+YY-101 100 uM • 5. PBMC+YY-101 10 uM • 6. PBMC+YY-101 1 uM • 7. PBMC+YY-101 0.1 uM • 8. PBMC+YY-101 0.01 uM • 9. PBMC+LPS (5 ug/ml)+Xiidra®100 uM • 10. PBMC+LPS (5 ug/ml)+Xiidra® 10 uM • 11. PBMC+LPS (5 ug/ml)+Xiidra® 1 uM • 12. PBMC+LPS (5 ug/ml)+Xiidra®0.1 uM • 13. PBMC+LPS (5 ug/ml)+Xiidra®0.01 uM • 14. PBMC+LPS (5 ug/ml)+Xiidra®0.001 uM • 15. PBMC+LPS (5 ug/ml)+YY-101 100 uM • 16. PBMC+LPS (5 ug/ml)+YY-101 10 uM • 17. PBMC+LPS (5 ug/ml)+YY-101 1 uM • 18. PBMC+LPS (5 ug/ml)+YY-101 0.1 uM • 19. PBMC+LPS (5 ug/ml)+YY-101 0.01 uM • 20. PBMC+LPS (5 ug/ml)+YY-101 0.001 uM • 21. PBMC+LPS (5 ug/ml)+YDE-011 100 uM • 22. PBMC+LPS (5 ug/ml)+YDE-011 10 uM • 23. PBMC+LPS (5 ug/ml)+YDE-011 1 uM • 24. PBMC+LPS (5 ug/ml)+YDE-011 0.1 uM • 25. PBMC+LPS (5 ug/ml)+YDE-011 0.01 uM • 26. PBMC+LPS (5 ug/ml)+YDE-011 0.001 uM • 27. PBMC+LPS (5 ug/ml)+YDE-043 100 uM • 28. PBMC+LPS (5 ug/ml)+YDE-043 10 uM • 29. PBMC+LPS (5 ug/ml)+YDE-043 1 uM • 30. PBMC+LPS (5 ug/ml)+YDE-043 0.1 uM • 31. PBMC+LPS (5 ug/ml)+YDE-043 0.01 uM • 32. PBMC+LPS (5 ug/ml)+YDE-043 0.001 uM
Multiplex assay was used to measure 30 cytokines and chemokines. The 1:2, 1:10 and 1:200 diluted cell supernatant and serial dilution of the standard were dispensed into a 96 well plate at 50 ul/well. Then, the pre-mixed cocktail of antibody-coated magnetic beads was dispensed at 50 ul/well and incubated at room temperature for 2 h in a horizontal orbital microplate shaker at 800±500 rpm. The beads were washed using a magnetic device to prevent loss. The biotin-antibody was dispensed in 50 ul of each well and incubated at room temperature for 1 h in a shaker at 800±500 rpm. After washing, streptavidin-PE was added at 50 ul/well and incubated at room temperature for 30 min in a shaker under the same conditions. Finally, after washing, wash buffer (100 ul/well) was added to the plate and incubated in a shaker for 2 min. The Luminex™ 200 setting were set according to the manufacturer's protocol. The data was calculated with a standard five-parameter logistic nonlinear regression analysis of the data (xPonent software 4.2, USA). The levels of cytokine/chemokine are normalized to the live cell counts (1×10^5 cells/mL) and presented as concentrations per mL (pg/mL or ng/mL).

[1] = test article 0.001 uM, single replicates (1st, 2nd, 3rd)
[2] = test article 0.01 uM, single replicates (1st, 2nd, 3rd)
[3] = test article 0.1 uM, single replicates (1st, 2nd, 3rd)
[4] = test article 1 uM, single replicates (1st, 2nd, 3rd)
[5] = test article 10 uM, single replicates (1st, 2nd, 3rd)
[6] = test article 100 uM, single replicates (1st, 2nd, 3rd)

Structure (SMILES) | Concentration (CCL5/RANTES) (test article 0.001 uM, Mean) [pg/mL] | MFI (Bead name: CCL5/RANTES) (test article 0.001 uM, Mean) | conc/live cell (CCL5/RANTES) (test article 0.001 uM, Mean) [pg/10^5] | Concentration (CCL5/RANTES) [1] | MFI (Bead name: CCL5/RANTES) [1] | conc/live cell (CCL5/RANTES) [1] | Concentration (CCL5/RANTES) (test article 0.01 uM, Mean) [pg/mL] | MFI (Bead name: CCL5/RANTES) (test article 0.01 uM, Mean) | conc/live cell (CCL5/RANTES) (test article 0.01 uM, Mean) [pg/10^5] | Concentration (CCL5/RANTES) [2] | MFI (Bead name: CCL5/RANTES) [2] | conc/live cell (CCL5/RANTES) [2] | Concentration (CCL5/RANTES) (test article 0.1 uM, Mean) [pg/mL] | MFI (Bead name: CCL5/RANTES) (test article 0.1 uM, Mean) | conc/live cell (CCL5/RANTES) (test article 0.1 uM, Mean) [pg/10^5] | Concentration (CCL5/RANTES) [3] | MFI (Bead name: CCL5/RANTES) [3] | conc/live cell (CCL5/RANTES) [3] | Concentration (CCL5/RANTES) (test article 1 uM, Mean) [pg/mL] | MFI (Bead name: CCL5/RANTES) (test article 1 uM, Mean) | also measured
CC(C)C[C@H](NC(=O)CNC(=O)[C@H](CC(C)C)NC(=O)[C@H](CCC(N)=O)NC(=O)CNC(=O)[C@@H]1C[C@@H](O)CN1)C(=O)N[C@@H](C)C(=O)NCC(=O)N1CCC[C@H]1C(=O)N[C@@H](CCCCN)C(=O)O [YDE-011] (H-[Hyp]GQLGLAGPK-OH) | 209.7 | 477.2 | 39.5 | 202.5 pg/ml (2×) and 224.1 pg/ml | 455.5 (2×) and 520.5 | 45.0 pg/10^5 and 34.9 pg/10^5 and 38.6 pg/10^5 | 215.3 | 494.0 | 37.1 | 216.5 pg/mL and 220.2 pg/mL and 209.4 pg/mL | 497.5 and 508.5 and 476.0 | 34.9 pg/10^5 and 43.2 pg/10^5 and 33.2 pg/10^5 | 207.0 | 468.8 | 36.3 | 206.7 pg/mL and 205.2 pg/mL and 209.0 pg/mL | 468.0 and 463.5 and 475.0 | 31.3 pg/10^5 and 41.0 pg/10^5 and 36.7 pg/10^5 | 199.8 | 447.5 | conc/live cell (CCL5/RANTES) (test article 1 uM, Mean): 39.8 pg/10^5; Concentration (CCL5/RANTES) [4]: 205.5 pg/mL and 199.5 pg/mL and 194.4 pg/mL; MFI (Bead name: CCL5/RANTES) [4]: 464.5 and 446.5 and 431.5; conc/live cell (CCL5/RANTES) [4]: 37.4 pg/10^5 and 41.6 pg/10^5 and 40.5 pg/10^5; Concentration (CCL5/RANTES) (test article 10 uM, Mean): 204.9 pg/mL; MFI (Bead name: CCL5/RANTES) (test article 10 uM, Mean): 462.7; conc/live cell (CCL5/RANTES) (test article 10 uM, Mean): 38.9 pg/10^5; Concentration (CCL5/RANTES) [5]: 214.7 pg/mL and 201.8 pg/mL and 198.1 pg/mL; MFI (Bead name: CCL5/RANTES) [5]: 492.0 and 453.5 and 442.5; conc/live cell (CCL5/RANTES) [5]: 39.8 pg/10^5 and 34.8 pg/10^5 and 42.1 pg/10^5; Concentration (CCL5/RANTES) (test article 100 uM, Mean): 161.8 pg/mL; MFI (Bead name: CCL5/RANTES) (test article 100 uM, Mean): 338.5; conc/live cell (CCL5/RANTES) (test article 100 uM, Mean): 26.7 pg/10^5; Concentration (CCL5/RANTES) [6]: 170.4 pg/mL and 153.5 pg/mL and 161.5 pg/mL; MFI (Bead name: CCL5/RANTES) [6]: 362.5 and 315.5 and 337.5; conc/live cell (CCL5/RANTES) [6]: 27.9 pg/10^5 and 25.2 pg/10^5 and 26.9 pg/10^5
CC(C)C[C@H](NC(=O)[C@H](CCC(N)=O)NC(=O)CNC(=O)[C@@H]1C[C@@H](O)CN1)C(=O)NCC(=O)O [YDE-043] (H-[Hyp]GQLG-OH; N-terminus and C-terminus assumed) | 207.1 | 469.3 | 42.0 | 199.1 pg/mL and 216.5 pg/mL and 205.7 pg/mL | 445.5 and 497.5 and 465.0 | 45.3 pg/10^5 and 36.1 pg/10^5 and 44.7 pg/10^5 | 214.6 | 491.8 | 41.1 | 219.3 pg/mL and 212.9 pg/mL and 211.7 pg/mL | 506.0 and 486.5 and 483.0 | 48.7 pg/10^5 and 32.3 pg/10^5 and 42.3 pg/10^5 | 215.9 | 495.8 | 40.1 | 220.2 pg/mL and 200.1 pg/mL and 227.4 pg/mL | 508.5 and 448.5 and 530.5 | 44.0 pg/10^5 and 35.7 pg/10^5 and 40.6 pg/10^5 | 214.4 | 491.2 | conc/live cell (CCL5/RANTES) (test article 1 uM, Mean): 40.7 pg/10^5; Concentration (CCL5/RANTES) [4]: 218.2 pg/mL and 212.9 pg/mL and 212.2 pg/mL; MFI (Bead name: CCL5/RANTES) [4]: 502.5 and 486.5 and 484.5; conc/live cell (CCL5/RANTES) [4]: 37.6 pg/10^5 and 44.3 pg/10^5 and 40.0 pg/10^5; Concentration (CCL5/RANTES) (test article 10 uM, Mean): 202.8 pg/mL; MFI (Bead name: CCL5/RANTES) (test article 10 uM, Mean): 456.5; conc/live cell (CCL5/RANTES) (test article 10 uM, Mean): 37.6 pg/10^5; Concentration (CCL5/RANTES) [5]: 212.9 pg/mL and 193.7 pg/mL and 201.8 pg/mL; MFI (Bead name: CCL5/RANTES) [5]: 486.5 and 429.5 and 453.5; conc/live cell (CCL5/RANTES) [5]: 40.9 pg/10^5 and 35.9 pg/10^5 and 36.0 pg/10^5; Concentration (CCL5/RANTES) (test article 100 uM, Mean): 163.0 pg/mL; MFI (Bead name: CCL5/RANTES) (test article 100 uM, Mean): 341.8; conc/live cell (CCL5/RANTES) (test article 100 uM, Mean): 25.9 pg/10^5; Concentration (CCL5/RANTES) [6]: 167.0 pg/mL and 159.0 pg/mL; MFI (Bead name: CCL5/RANTES) [6]: 353.0 and 330.5; conc/live cell (CCL5/RANTES) [6]: 26.9 pg/10^5 and 24.8 pg/10^5

Source: patent publication US20230146455A1, “TREATMENT OF INFLAMMATORY DISEASES WITH PEPTIDES AND PHARMACEUTICAL COMPOSITIONS” (Yuyu Pharma, Inc., priority 2020, published 2023)
